# Calls of active or inactive are those of the source. The calls are words filed in the database; no cut-off is given here.
# Legend:
# Assay type in all cases: functional, organism-based
# Cyperus iria [1] = assay: Pre-emergence herbicidal activity against Cyperus iria assessed as growth inhibition at 25 g a.i/10 a
# Echinochloa crus-galli [2] = assay: Post-emergence herbicidal activity against Echinochloa crus-galli (barnyard grass) assessed as growth inhibition at 25 g a.i/10 a applied 11 days after germination as foliar spray
# Persicaria nodosa [3] = assay: Post-emergence herbicidal activity against Persicaria nodosa assessed as growth inhibition at 25 g a.i/10 a applied 11 days after germination as foliar spray
# Amaranthus retroflexus [4] = assay: Post-emergence herbicidal activity against Amaranthus retroflexus assessed as growth inhibition at 25 g a.i/10 a applied 11 days after germination as foliar spray
# Chenopodium album [5] = assay: Post-emergence herbicidal activity against Chenopodium album assessed as growth inhibition at 25 g a.i/10 a applied 11 days after germination as foliar spray
# Digitaria sanguinalis [6] = assay: Post-emergence herbicidal activity against Digitaria sanguinalis (hairy crabgrass) assessed as growth inhibition at 25 g a.i/10 a applied 11 days after germination as foliar spray
# Chenopodium album [7] = assay: Pre-emergence herbicidal activity against Chenopodium album assessed as growth inhibition at 25 g a.i/10 a
# Persicaria nodosa [8] = assay: Pre-emergence herbicidal activity against Persicaria nodosa assessed as growth inhibition at 25 g a.i/10 a
# Digitaria sanguinalis [9] = assay: Pre-emergence herbicidal activity against Digitaria sanguinalis (hairy crabgrass) assessed as growth inhibition at 25 g a.i/10 a
# Cyperus iria [10] = assay: Post-emergence herbicidal activity against Cyperus iria assessed as growth inhibition at 25 g a.i/10 a applied 11 days after germination as foliar spray
# Echinochloa crus-galli [11] = assay: Pre-emergence herbicidal activity against Echinochloa crus-galli (barnyard grass) assessed as growth inhibition at 25 g a.i/10 a
# Amaranthus retroflexus [12] = assay: Pre-emergence herbicidal activity against Amaranthus retroflexus assessed as growth inhibition at 25 g a.i/10 a
SMILES,growth inhibition (GI) (Cyperus iria [1]),growth inhibition (GI) (Echinochloa crus-galli [2]),growth inhibition (GI) (Persicaria nodosa [3]),growth inhibition (GI) (Amaranthus retroflexus [4]),growth inhibition (GI) (Chenopodium album [5]),growth inhibition (GI) (Digitaria sanguinalis [6]),growth inhibition (GI) (Chenopodium album [7]),growth inhibition (GI) (Persicaria nodosa [8]),growth inhibition (GI) (Digitaria sanguinalis [9]),growth inhibition (GI) (Cyperus iria [10]),growth inhibition (GI) (Echinochloa crus-galli [11]),growth inhibition (GI) (Amaranthus retroflexus [12])
CCOCCOc1cccc(Oc2nc(OC)cc(OC)n2)c1C(=O)O,Active,Active,Active,Active,Active,Active,Active,Active,Active,Active,Active,Active
COc1cc(OC)nc(Oc2ccc(Br)cc2C(=O)O)n1,inactive,inactive,inactive,inactive,inactive,inactive,inactive,inactive,inactive,inactive,inactive,inactive
COc1cc(OC)nc(Oc2c(C)cccc2C(=O)O)n1,Active,inactive,Active,Active,inactive,inactive,Active,inactive,inactive,Active,Active,Active
CCCc1cccc(Oc2nc(OC)cc(OC)n2)c1C(=O)O,Active,Active,Active,Active,Active,Active,Active,Active,Active,Active,Active,Active
CNc1ccc(Oc2nc(OC)cc(OC)n2)c(C(=O)O)c1,Active,Active,Active,Active,Active,Active,Active,Active,inactive,Active,inactive,Active
COc1cc(OC)nc(Oc2cccc(-n3cccc3)c2C(=O)O)n1,Active,Active,Active,Active,Active,Active,Active,Active,Active,Active,Active,Active
COc1cc(OC)nc(Cc2cccc(Cl)c2C(=O)O)n1,Active,Active,Active,Active,Active,Active,Active,Active,Active,Active,Active,Active
COc1cc(OC)nc(Oc2ccc(F)cc2C(=O)O)n1,Active,Active,Active,Active,Active,inactive,Active,Active,Active,Active,Active,Active
COc1cc(OC)nc(Oc2ccc(OC(C)C)cc2C(=O)O)n1,inactive,Active,Active,inactive,inactive,inactive,inactive,inactive,inactive,Active,inactive,inactive
COc1cc(OC)nc([S+]([O-])c2cccc(Cl)c2C(=O)O)n1 (stereo not given),Active,Active,Active,Active,Active,inactive,Active,inactive,Active,Active,inactive,Active
COc1cc(OC)nc(Oc2c(Cl)cccc2C(=O)O)n1,,inactive,Active,Active,inactive,inactive,,,,Active,,
COc1cc(OC)nc(Oc2ccc(-n3cccc3)cc2C(=O)O)n1,inactive,Active,Active,Active,inactive,Active,inactive,inactive,inactive,Active,inactive,inactive
COc1cc(OC)nc(Oc2ccc(C)cc2C(=O)O)n1,Active,Active,Active,Active,inactive,inactive,Active,inactive,inactive,inactive,inactive,Active
COc1cc(OC)nc(Oc2ccc(I)cc2C(=O)O)n1,inactive,Active,Active,inactive,inactive,inactive,inactive,inactive,inactive,Active,inactive,inactive
COc1ccc(Oc2nc(OC)cc(OC)n2)c(C(=O)O)c1,Active,Active,Active,Active,inactive,Active,Active,Active,Active,Active,Active,Active
COc1cc(OC)nc(Oc2cc(N)ccc2C(=O)O)n1,inactive,inactive,Active,Active,Active,inactive,inactive,inactive,inactive,Active,inactive,inactive
CCCOc1cccc(Oc2nc(OC)cc(OC)n2)c1C(=O)O,Active,Active,Active,Active,Active,Active,Active,Active,Active,Active,Active,Active
COc1cc(OC)nc(Oc2c(F)cccc2C(=O)O)n1,Active,Active,Active,Active,Active,inactive,Active,Active,Active,Active,Active,Active

# From ChEMBL document CHEMBL3046894, “Synthesis and Herbicidal Activity of Pyrimidinyl Salicylic and Thiosalicylic Acids” (J Pestic Sci, 1996)
